GI50 and TGI data for 6 compounds are collected here from PubChem BioAssay (NCI).

Test systems include CAKI-1 renal; COLO 205 colon; HT29 colon; MDA-MB-435; NCI-H226 lung; NCI-H23 lung; RPMI-8226 leukemia; SF-295 CNS; SW-620 colon; UACC-257 melanoma.
Holding throughout (assay): inhibition of tumour cell growth, NCI panel, 48 h

Several values for one entry are separate records, joined by “and”; a condition that tells them apart may be missing. Identical values can stand only once.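 Step 1: Grow cells in 96-well plates. Step 2: Expose to compound for 48 hours at 5 concentrations. Step 3: Interpolate endpoints linearly; if unreached, use highest concentration. Abbreviation: GI50, concentration required for 50% inhibition of growth. Definition used: TGI = concentration required for complete inhibition of growth.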

As to `O=C(C(=O)c1cccnc1)c1cccnc1`, the GI50 in the experiment with CAKI-1 renal, with COLO 205 colon, with HT29 colon, with MDA-MB-435, in the experiment with NCI-H226 lung and with NCI-H23 lung was > 100 µM in each case. Besides, the GI50 in the experiment with RPMI-8226 leukemia, in the experiment with SF-295 CNS, in the experiment with SW-620 colon and in the experiment with UACC-257 melanoma was > 100 µM each time. Besides, the TGI in the experiment with CAKI-1 renal, in the experiment on COLO 205 colon, in the experiment with HT29 colon, with MDA-MB-435, in the experiment on NCI-H226 lung and in the experiment on NCI-H23 lung was > 100 µM throughout. Moreover, the TGI in the experiment with RPMI-8226 leukemia, in the experiment with SF-295 CNS, in the experiment with SW-620 colon and in the experiment with UACC-257 melanoma was > 100 µM each time.
For the compound `CC(=O)OCC1OC([S-])C(OC(C)=O)C(OC(C)=O)C1OC(C)=O.[Au+].c1ccc(CN2[CH-]N(Cc3ccccc3)C(c3ccccc3)=C2c2ccccc2)cc1`, the GI50 with CAKI-1 renal is 0.866 µM; in the experiment on COLO 205 colon it was 3.59 µM and 0.881 µM; in the experiment on HT29 colon it was 3.38 µM and 1.02 µM; with MDA-MB-435, 2.94 µM and 0.86 µM; in the experiment on NCI-H226 lung it was 3.5 µM and 0.655 µM; with NCI-H23 lung it was 1.93 µM and 0.408 µM. For the same compound, the GI50 in the experiment with SW-620 colon is 2.02 µM and 0.779 µM; in the experiment on UACC-257 melanoma, 2.26 µM and 1 µM. Besides, the TGI in the experiment with CAKI-1 renal is 3.37 µM; in the experiment on COLO 205 colon, 14.3 µM and 2.27 µM; in the experiment with HT29 colon, 12.6 µM and 4.47 µM; in the experiment with MDA-MB-435, 10.4 µM and 3.36 µM; with NCI-H226 lung it was 14.3 µM and 5.74 µM; in the experiment with NCI-H23 lung, 4.86 µM and 3.11 µM. For the same compound, the TGI in the experiment with RPMI-8226 leukemia was 5.99 µM and 1.93 µM; with SF-295 CNS it was 20.3 µM and 4.59 µM; in the experiment with SW-620 colon, 4.61 µM and 2.08 µM; with UACC-257 melanoma, 9.22 µM and 3.12 µM.
As for `CCN(CC)CCOc1ccc(NC(=O)C(C(C)C)N2C(=O)/C(=C/c3ccc(Br)cc3)SC2=S)cc1` (configuration not stated), the GI50 is 4.38 µM in the experiment with CAKI-1 renal; 2.64 µM with COLO 205 colon; 2.88 µM in the experiment on HT29 colon; 2.1 µM in the experiment on MDA-MB-435; 16.2 µM with NCI-H226 lung; 3.74 µM with NCI-H23 lung. The GI50 with RPMI-8226 leukemia was 2.35 µM; in the experiment with SF-295 CNS, 3.41 µM; with SW-620 colon, 1.97 µM; with UACC-257 melanoma, 2.2 µM. Further, the TGI in the experiment on CAKI-1 renal turned out to be 17.1 µM; with COLO 205 colon, 6.88 µM; in the experiment on HT29 colon it was 8.51 µM; with MDA-MB-435, 4.41 µM; with NCI-H226 lung, 37.3 µM; with NCI-H23 lung, 13.9 µM. For the same compound, the TGI worked out at 5.73 µM in the experiment on RPMI-8226 leukemia, 11.7 µM in the experiment with SF-295 CNS, 4.02 µM with SW-620 colon and 5.14 µM in the experiment with UACC-257 melanoma.
Take `CN(C)C[C@@H]1CCn2cc(c3ccccc32)C2=C(C(=O)NC2=O)c2cn(c3ccccc23)CCO1`: the GI50 in the experiment on CAKI-1 renal was 1.36 µM; in the experiment with COLO 205 colon it was 1.03 µM; in the experiment with HT29 colon it was 3.32 µM; in the experiment on MDA-MB-435, 1.46 µM; in the experiment on NCI-H226 lung, 2 µM; in the experiment on NCI-H23 lung, 2.95 µM. For the same compound, the GI50 in the experiment on RPMI-8226 leukemia is 1.13 µM; in the experiment with SF-295 CNS, 3.3 µM; in the experiment on SW-620 colon it was 0.467 µM; in the experiment with UACC-257 melanoma, 2.08 µM. Besides, the TGI in the experiment on CAKI-1 renal, with COLO 205 colon, with HT29 colon, in the experiment on MDA-MB-435, with NCI-H226 lung and in the experiment on NCI-H23 lung was > 10 µM throughout. Besides, the TGI with RPMI-8226 leukemia was 4.02 µM; in the experiment with SF-295 CNS, > 10 µM; with SW-620 colon, 4.28 µM; in the experiment with UACC-257 melanoma, > 10 µM.
For `C=C1C(=O)O[C@H]2C3OC3(C)CC/C=C(/C(=O)OC)[C@@H](OC(C)=O)[C@H](OC(=O)C3(C)OC3C)[C@H]12` (some centres not stated), the GI50 in the experiment with CAKI-1 renal was 206 nM and 1.12 µM and 0.579 µg/mL; in the experiment on COLO 205 colon, 506 nM and 487 nM and 0.263 µg/mL; with HT29 colon it was 1.29 µM and 1.06 µM and 1.32 µg/mL; with NCI-H226 lung, 1.6 µM and 8.12 µg/mL; in the experiment with NCI-H23 lung, 1.93 µM and 2.68 µM; in the experiment on RPMI-8226 leukemia, 0.329 µg/mL. In addition, the GI50 was 4.84 µg/mL in the experiment with SF-295 CNS; 422 nM and 350 nM and 0.302 µg/mL in the experiment with SW-620 colon; 1.42 µM and 0.434 µM in the experiment with UACC-257 melanoma. Besides, the TGI with CAKI-1 renal was 478 nM and 2.35 µM and 1.57 µg/mL; in the experiment on COLO 205 colon it was 1.81 µM and 1.86 µM and 0.495 µg/mL; in the experiment on HT29 colon, 2.55 µM and 2.3 µM and 4.03 µg/mL; in the experiment on MDA-MB-435 it was 3.95 µM and 4.99 µM; in the experiment with NCI-H226 lung, 3.25 µM and 31 µg/mL; in the experiment on NCI-H23 lung it was 7.27 µM and 6.54 µM. Further, the TGI in the experiment on RPMI-8226 leukemia is 1.21 µM and 2.66 µM and 0.941 µg/mL; in the experiment with SF-295 CNS, 14.8 µg/mL; with SW-620 colon it was 3.47 µM and 1.4 µM and 0.762 µg/mL; in the experiment on UACC-257 melanoma, 2.96 µM and 1.33 µM.
With `Cc1ccc2c(c1)C(=O)/C(=C/c1cccc(OCC(=O)c3ccc(Cl)cc3)c1)CS2`, the GI50 in the experiment on CAKI-1 renal was 12.4 µM; in the experiment on COLO 205 colon, 9.31 µM; with HT29 colon, 2.81 µM; with MDA-MB-435 it was 2.4 µM; in the experiment on NCI-H226 lung it was 14.9 µM; in the experiment on NCI-H23 lung, 3.03 µM. Moreover, the GI50 was 1.85 µM with RPMI-8226 leukemia, 3.17 µM with SF-295 CNS, 1.95 µM in the experiment with SW-620 colon and 13.9 µM in the experiment on UACC-257 melanoma. For the same compound, the TGI amounted to 37 µM in the experiment with CAKI-1 renal; 35.8 µM in the experiment on COLO 205 colon; 7.25 µM in the experiment with HT29 colon; 6.26 µM in the experiment on MDA-MB-435; 31.4 µM in the experiment with NCI-H226 lung; 23.4 µM with NCI-H23 lung. For the same compound, the TGI in the experiment with RPMI-8226 leukemia is 4.47 µM; with SF-295 CNS, 12.1 µM; with SW-620 colon it was 4.19 µM; in the experiment on UACC-257 melanoma, 33.3 µM.
